# Several values for one entry are separate records, joined by “and”; a condition that tells them apart may be missing. Equal values may be shown once.
# Tests used:
# Assay type in all cases: physicochemical
# [1] = Solubility in neat solvents, shake-flask with spectrophotometric determination; details: for solubility at 24 h: 25 °C, organic solvent or mixture, thermodynamic from solid
# Description: (§1) The calibration curves for each derivative were obtained using successful dilutions of initial stock solutions followed by spectrophotometric measurements of the obtained solutions with decreasing concentration. The concentration ranges for the derivatives 1, 2, and 3 were 0.0081–0.0405 mg/mL, 0.0077–0.0385 mg/mL, and 0.0068–0.017 mg/mL, respectively. Methanol was used both as a solvent, as well as a reference for spectrophotometric measurements. […] The A360 spectrophotometer from AOE Instruments was used for the preparation of the calibration curves. […] Three calibration curves were prepared for each derivative and then averaged.
# (§2) A multi-step procedure was employed in order to find the solubility of the studied derivatives in the selected solvents. First of all, the excess amount of the considered compound was added to test tubes containing either neat solvents or their mixtures with water in different proportions, thus forming binary solvents. Saturated solutions were obtained in this way, placed in a Shaker Incubator ES-20/60 from Biosan, and incubated for 24 h at 298.1 K. The temperature adjustment was possible with a 0.1-degree accuracy, and the variance within a 24 h cycle was 0.5 degrees. The samples were simultaneously mixed at 60 rev/min. After incubation, the samples were filtered with the help of plastic syringes equipped with PTFE filters with 0.22 µm pore size. The obtained filtrates were diluted with methanol in another set of test tubes. In order to determine the mole fractions of a solute in the solution, 1 mL of the filtered samples was weighed in 10 mL volumetric flasks using a RADWAG AS 110 R2.PLUS analytical balance. The samples diluted with methanol were measured spectrophotometrically using the same instrument as was used in the case of calibration curves. The spectra were recorded in the wavelength range of 190–500 nm, and the resolution was 1 nm. Methanol was used if further dilution of the sample was required, and it was also used as a reference for calibrating the spectrophotometer. The absorbance values at 315 nm, 321 nm, and 321 nm were taken into account for derivatives 1, 2, and 3, respectively. Based on the calibration curves, the concentration of the solute in the samples was determined together with its mole fraction. Three separate measurements were conducted, and the final values are the results of averaging them.
# [2] = Solubility in NMP-water binary mixtures; details: for solubility at 24 h: thermodynamic from solid
# Description: as §1, §2
# [3] = Solubility in DMSO-water binary mixtures; details: for solubility at 24 h: 25 °C, thermodynamic from solid
# Description: as §1, §2
# [4] = neat γ-nonanoic lactone, 298.1 K
compound,measurement,setting,value
"O=C1Nc2ccc([N+](=O)[O-])cc2C1=NNC(=O)c1cccc([N+](=O)[O-])c1 [derivative 3, 3-nitro-N′-[5-nitro-2-oxo-1,2-dihydro-3H-indol-3-ylidene]benzohydrazide]",solubility at 24 h,"[1]; neat DMF, 298.1 K",1690 µg/mL
same,solubility at 24 h,"[1]; neat DMP, 298.1 K",80 µg/mL
same,solubility at 24 h,"[1]; neat DMSO, 298.1 K",3090 µg/mL
same,solubility at 24 h,"[1]; neat NMP, 298.1 K",8990 µg/mL
same,solubility at 24 h,"[1]; neat acetone, 298.1 K",210 µg/mL
same,solubility at 24 h,"[1]; neat acetonitrile, 298.1 K",170 µg/mL
same,solubility at 24 h,"[1]; neat cyrene, 298.1 K",290 µg/mL
same,solubility at 24 h,"[1]; neat diglyme, 298.1 K",520 µg/mL
same,solubility at 24 h,"[1]; neat dioxane, 298.1 K",310 µg/mL
same,solubility at 24 h,"[1]; neat ethyl lactate, 298.1 K",180 µg/mL
same,solubility at 24 h,"[1]; neat methanol, 298.1 K",60 µg/mL
same,solubility at 24 h,"[1]; neat tetraglyme, 298.1 K",430 µg/mL
same,solubility at 24 h,"[1]; neat triglyme, 298.1 K",230 µg/mL
same,solubility at 24 h,"[1]; neat γ-heptalactone, 298.1 K",440 µg/mL
same,solubility at 24 h,[1]; [4],280 µg/mL
same,solubility at 24 h,[1]; neat 1-butanol,20 µg/mL
same,solubility at 24 h,[1]; neat 1-propanol,20 µg/mL
same,solubility at 24 h,[1]; neat 4FM,940 µg/mL
same,solubility x,"[1]; neat 4FM, 298.1 K",2.65 (0.11) × 10^−4 mole fraction
same,solubility x,"[1]; neat DMF, 298.1 K",3.69 × 10^−4 mole fraction and 3.69 (0.05) × 10^−4 mole fraction
same,solubility x,"[1]; neat DMP, 298.1 K",0.27 (0.01) × 10^−4 mole fraction
same,solubility x,"[1]; neat DMSO, 298.1 K",6.12 × 10^−4 mole fraction and 6.12 (0.10) × 10^−4 mole fraction
same,solubility x,"[1]; neat NMP, 298.1 K",2.44 × 10^−3 mole fraction and 2.44 (0.07) × 10^−3 mole fraction
same,solubility x,"[1]; neat acetone, 298.1 K",0.43 (0.01) × 10^−4 mole fraction
same,solubility x,"[1]; neat cyrene, 298.1 K",0.83 (0.01) × 10^−4 mole fraction
same,solubility x,"[1]; neat diglyme, 298.1 K",2.08 (0.07) × 10^−4 mole fraction
same,solubility x,"[1]; neat dioxane, 298.1 K",0.74 (0.01) × 10^−4 mole fraction
same,solubility at 24 h,[1]; neat ethanol,30 µg/mL
same,solubility x,"[1]; neat ethyl lactate, 298.1 K",0.57 (0.01) × 10^−4 mole fraction
same,solubility x,"[1]; neat tetraglyme, 298.1 K",2.67 (0.09) × 10^−4 mole fraction
same,solubility x,"[1]; neat triglyme, 298.1 K",1.17 (0.05) × 10^−4 mole fraction
same,solubility x,"[1]; neat γ-heptalactone, 298.1 K",1.59 (0.04) × 10^−4 mole fraction
same,solubility x,[1]; [4],1.26 (0.05) × 10^−4 mole fraction
same,solubility at 24 h,[1]; neat ε-caprolactone,340 µg/mL
same,solubility x,"[1]; neat ε-caprolactone, 298.1 K",1.02 (0.02) × 10^−4 mole fraction
same,solubility at 24 h,"[2]; NMP-water binary mixture, x*NMP 0.1, 25 °C, aqueous with cosolvent or surfactant or cyclodextrin, x*NMP 0.1, 298.1 K",1580 µg/mL
same,solubility at 24 h,"[2]; NMP-water binary mixture, x*NMP 0.2, 25 °C, aqueous with cosolvent or surfactant or cyclodextrin, x*NMP 0.2, 298.1 K",3290 µg/mL
same,solubility at 24 h,"[2]; NMP-water binary mixture, x*NMP 0.3, 25 °C, aqueous with cosolvent or surfactant or cyclodextrin, x*NMP 0.3, 298.1 K",4940 µg/mL
same,solubility at 24 h,"[2]; NMP-water binary mixture, x*NMP 0.4, 25 °C, aqueous with cosolvent or surfactant or cyclodextrin, x*NMP 0.4, 298.1 K",6490 µg/mL
same,solubility at 24 h,"[2]; NMP-water binary mixture, x*NMP 0.7, 25 °C, aqueous with cosolvent or surfactant or cyclodextrin, x*NMP 0.7, 298.1 K",9560 µg/mL
same,solubility at 24 h,"[2]; NMP-water binary mixture, x*NMP 0.8, 25 °C, aqueous with cosolvent or surfactant or cyclodextrin, x*NMP 0.8, 298.1 K",10200 µg/mL
same,solubility at 24 h,"[2]; NMP-water binary mixture, x*NMP 0.9, 25 °C, aqueous with cosolvent or surfactant or cyclodextrin, x*NMP 0.9, 298.1 K",9710 µg/mL
same,solubility at 24 h,"[2]; NMP-water binary solvent, 25 °C, aqueous with cosolvent or surfactant or cyclodextrin, x*NMP 0.5, 298.1 K",7720 µg/mL
same,solubility at 24 h,"[2]; NMP-water binary solvent, 25 °C, aqueous with cosolvent or surfactant or cyclodextrin, x*NMP 0.6, 298.1 K",8710 µg/mL
same,solubility at 24 h,"[2]; NMP-water series, x*NMP 1.0, 25 °C, organic solvent or mixture, x*NMP 1.0, 298.1 K",8990 µg/mL
same,solubility x,"[2]; x*NMP 0.1, 298.1 K",1.12 (0.01) × 10^−4 mole fraction
same,solubility x,"[2]; x*NMP 0.2, 298.1 K",3.05 (0.03) × 10^−4 mole fraction
same,solubility x,"[2]; x*NMP 0.3, 298.1 K",5.74 (0.10) × 10^−4 mole fraction
same,solubility x,"[2]; x*NMP 0.4, 298.1 K",8.92 (0.10) × 10^−4 mole fraction
same,solubility x,"[2]; x*NMP 0.5, 298.1 K",1.24 (0.01) × 10^−3 mole fraction
same,solubility x,"[2]; x*NMP 0.6, 298.1 K",1.60 (0.02) × 10^−3 mole fraction
same,solubility x,"[2]; x*NMP 0.7, 298.1 K",1.99 (0.02) × 10^−3 mole fraction
same,solubility x,"[2]; x*NMP 0.8, 298.1 K",2.29 (0.02) × 10^−3 mole fraction
same,solubility x,"[2]; x*NMP 0.9, 298.1 K",2.40 (0.03) × 10^−3 mole fraction
same,solubility x,"[2]; x*NMP 1.0, 298.1 K",2.44 (0.06) × 10^−3 mole fraction
same,solubility at 24 h,"[3]; DMSO-water binary mixture, aqueous with cosolvent or surfactant or cyclodextrin, x*DMSO 0.1, 298.1 K",860 µg/mL
same,solubility at 24 h,"[3]; DMSO-water binary mixture, aqueous with cosolvent or surfactant or cyclodextrin, x*DMSO 0.2, 298.1 K",1580 µg/mL
same,solubility at 24 h,"[3]; DMSO-water binary mixture, aqueous with cosolvent or surfactant or cyclodextrin, x*DMSO 0.3, 298.1 K",2480 µg/mL
same,solubility at 24 h,"[3]; DMSO-water binary mixture, aqueous with cosolvent or surfactant or cyclodextrin, x*DMSO 0.4, 298.1 K",3300 µg/mL
same,solubility at 24 h,"[3]; DMSO-water binary mixture, aqueous with cosolvent or surfactant or cyclodextrin, x*DMSO 0.5, 298.1 K",3750 µg/mL
same,solubility at 24 h,"[3]; DMSO-water binary mixture, aqueous with cosolvent or surfactant or cyclodextrin, x*DMSO 0.6, 298.1 K",3950 µg/mL
same,solubility at 24 h,"[3]; DMSO-water binary mixture, aqueous with cosolvent or surfactant or cyclodextrin, x*DMSO 0.7, 298.1 K",4010 µg/mL
same,solubility at 24 h,"[3]; DMSO-water binary mixture, aqueous with cosolvent or surfactant or cyclodextrin, x*DMSO 0.8, 298.1 K",3850 µg/mL
same,solubility at 24 h,"[3]; DMSO-water binary mixture, aqueous with cosolvent or surfactant or cyclodextrin, x*DMSO 0.9, 298.1 K",3540 µg/mL
same,solubility at 24 h,"[3]; DMSO-water series, organic solvent or mixture, x*DMSO 1.0, 298.1 K",3090 µg/mL
same,solubility x,"[3]; x*DMSO 0.2, 298.1 K",1.21 (0.01) × 10^−4 mole fraction
same,solubility x,"[3]; x*DMSO 0.3, 298.1 K",2.29 (0.01) × 10^−4 mole fraction
same,solubility x,"[3]; x*DMSO 0.4, 298.1 K",3.57 (0.03) × 10^−4 mole fraction
same,solubility x,"[3]; x*DMSO 0.5, 298.1 K",4.59 (0.04) × 10^−4 mole fraction
same,solubility x,"[3]; x*DMSO 0.6, 298.1 K",5.45 (0.03) × 10^−4 mole fraction
same,solubility x,"[3]; x*DMSO 0.7, 298.1 K",6.09 (0.03) × 10^−4 mole fraction
same,solubility x,"[3]; x*DMSO 0.8, 298.1 K",6.47 (0.04) × 10^−4 mole fraction
same,solubility x,"[3]; x*DMSO 0.9, 298.1 K",6.51 (0.04) × 10^−4 mole fraction
same,solubility x,"[3]; x*DMSO 1.0, 298.1 K",6.12 (0.07) × 10^−4 mole fraction

# From PMC10669656, “ADMET and Solubility Analysis of New 5-Nitroisatine-Based Inhibitors of CDK2 Enzymes” (Biomedicines, 2023)
